Data published in patent US10363251B2, “(+)-morphinans as antagonists of toll-like receptor 9 and therapeutic uses thereof” (Mallinckrodt LLC, priority 2009, dated 2019).

Target: T1, TLR9 (Homo sapiens, UniProt Q9NR96)
T1 construct: expressed in transfected cells; host or cells: HEK293
T1 sequence (Q9NR96 26-1032): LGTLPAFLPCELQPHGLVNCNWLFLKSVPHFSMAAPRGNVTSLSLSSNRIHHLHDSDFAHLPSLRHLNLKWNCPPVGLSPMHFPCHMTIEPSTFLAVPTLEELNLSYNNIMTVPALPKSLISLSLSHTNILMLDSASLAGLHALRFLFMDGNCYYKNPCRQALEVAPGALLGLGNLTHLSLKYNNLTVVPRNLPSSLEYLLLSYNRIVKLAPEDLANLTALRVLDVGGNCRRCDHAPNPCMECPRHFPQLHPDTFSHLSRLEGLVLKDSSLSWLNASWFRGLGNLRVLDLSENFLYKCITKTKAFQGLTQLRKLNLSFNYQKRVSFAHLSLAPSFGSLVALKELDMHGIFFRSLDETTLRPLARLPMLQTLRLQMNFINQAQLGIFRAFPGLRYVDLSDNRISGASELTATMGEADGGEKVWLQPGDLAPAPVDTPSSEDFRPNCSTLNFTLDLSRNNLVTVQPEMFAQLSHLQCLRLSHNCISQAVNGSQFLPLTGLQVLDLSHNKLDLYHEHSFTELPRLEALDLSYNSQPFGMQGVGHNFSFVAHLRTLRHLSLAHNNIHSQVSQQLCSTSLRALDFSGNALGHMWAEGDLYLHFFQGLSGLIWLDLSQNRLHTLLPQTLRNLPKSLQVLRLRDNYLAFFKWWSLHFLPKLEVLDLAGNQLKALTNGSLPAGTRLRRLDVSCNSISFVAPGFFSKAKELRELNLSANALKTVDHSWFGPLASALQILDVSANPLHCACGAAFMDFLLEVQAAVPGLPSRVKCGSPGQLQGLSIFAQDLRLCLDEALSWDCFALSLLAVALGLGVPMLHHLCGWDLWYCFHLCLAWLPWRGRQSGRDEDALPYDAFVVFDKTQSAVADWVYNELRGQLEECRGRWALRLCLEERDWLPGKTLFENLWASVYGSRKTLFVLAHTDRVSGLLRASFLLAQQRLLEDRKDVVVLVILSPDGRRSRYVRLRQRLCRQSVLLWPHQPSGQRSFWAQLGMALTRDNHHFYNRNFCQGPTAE
Assay: TLR9 screening of (+)-morphinan library, SEAP reporter in HEK293 cells expressing TLR9
Format: cell-based
Settings: activator ODN2006; for OD 650 nm (mean ± sd): control (no activator) 0.14, activator 1.42 OD; for inhibition at 0.1 µM: HEK293, read-out: % Inhibition (mean), 100 nM; for inhibition at 10 µM: HEK293, read-out: % Inhibition (mean), 10 μM
Protocol: The secreted alkaline phosphatase reporter is under the control of a promoter inducible by the transcription factor NF-κB. A library of more than 100 (+)-morphinan compounds was screened for TLR9 antagonist activity by assessing NF-κB activation in the HEK293 cells expressing TLR9. This reporter gene allows the monitoring of signaling through the TLR, based on the activation of NF-κB.
In a 96-well plate (200 μL total volume) containing 50,000 cells/well, 20 μL of each sample compound was added to wells, in triplicate, followed by a 30 minute incubation at 37° C. and 5% CO2. After the 30 minutes of incubation, 20 μL of the activator ODN2006 was added to each well. The media added to the wells was designed for the detection of NF-κB induced SEAP expression. After a 16-20 hr incubation period, the OD at 650 nm was read on a Beckman Coulter AD 340C Absorbance Detector. All compounds were tested at concentrations of 10 μM and 100 nM.

SMILES: COc1ccc2c3c1O[C@@H]1C(O)CC[C@]4(O)[C@H](C2)N(CC2CC2)CC[C@@]314 (single isomer, unassigned) [II-53a]
- % Inhibition (mean) (100 nM, 0.1 µM): 14%
- OD 650 nm (mean ± sd) (100 nM): 1.22 ± 0.05 OD
- % Inhibition (mean) (10 μM): 7%
- OD 650 nm (mean ± sd) (10 μM): 1.32 ± 0.13 OD

SMILES: COc1ccc2c3c1O[C@@H]1C(O)CC[C@]4(O)[C@H](C2)N(CC2CC2)CC[C@@]314 (single isomer, unassigned) [II-53b]
- % Inhibition (mean) (100 nM, 0.1 µM): 1%
- OD 650 nm (mean ± sd) (100 nM): 1.41 ± 0.09 OD
- % Inhibition (mean) (10 μM): 29%
- OD 650 nm (mean ± sd) (10 μM): 1.00 ± 0.03 OD

SMILES: C=CCN1CC[C@@]23c4c5ccc(OC)c4OC2C(OC(C)=O)CC[C@@H]3C1C5 (single isomer, unassigned) [II-94a]
- OD 650 nm (mean ± sd) (100 nM): 1.13 ± 0.04 OD
- % Inhibition (mean) (10 μM): 18%
- OD 650 nm (mean ± sd) (10 μM): 1.16 ± 0.08 OD
- inhibition at 0.1 µM: 20%

SMILES: C=CCN1CC[C@@]23c4c5ccc(OC)c4OC2C(OC(C)=O)CC[C@@H]3C1C5 (single isomer, unassigned) [II-94b]
- % Inhibition (mean) (100 nM, 0.1 µM): 17%
- OD 650 nm (mean ± sd) (100 nM): 1.17 ± 0.03 OD
- % Inhibition (mean) (10 μM): 8%
- OD 650 nm (mean ± sd) (10 μM): 1.30 ± 0.05 OD

SMILES: C=CCN1CC[C@@]23c4c5ccc(OC)c4O[C@@H]2[C@H](O)CC[C@]3(O)[C@@H]1C5 (stereo in doubt) [II-48]
- inhibition at 10 µM: 13%

SMILES: COc1cc(Br)c2c(c1O)[C@@]13CCNC(C2)C1CCC(=O)C3 (stereo partly shown) [Compound I-1]
- OD 650 nm (mean ± sd) (100 nM): 1.18 ± 0.10 OD
- OD 650 nm (mean ± sd) (10 μM): 0.21 ± 0.01 OD
- inhibition at 0.1 µM: 17%
- inhibition at 10 µM: 85%

SMILES: COc1cc(Br)c2c(c1O)[C@@]13CCN(CC4CC4)C(C2)C1CCC(=O)C3 (stereo partly shown) [Compound I-2]
- OD 650 nm (mean ± sd) (100 nM): 1.10 ± 0.06 OD
- OD 650 nm (mean ± sd) (10 μM): 0.14 ± 0.02 OD
- inhibition at 0.1 µM: 22%
- inhibition at 10 µM: 90%

SMILES: C=CCN1CC[C@@]23CC(=O)CCC2C1Cc1c(-c2ccoc2)cc(OC)c(O)c13 (stereo partly shown) [Compound I-3]
- OD 650 nm (mean ± sd) (100 nM): 1.12 ± 0.01 OD
- OD 650 nm (mean ± sd) (10 μM): 0.11 ± 0.00 OD
- inhibition at 0.1 µM: 21%
- inhibition at 10 µM: 92%

SMILES: COC(=O)CCc1cc(OC)c(O)c2c1CC1C3CCC(=O)C[C@@]23CCN1CC1CC1 (stereo partly shown) [Compound I-4]
- OD 650 nm (mean ± sd) (100 nM): 1.17 ± 0.06 OD
- OD 650 nm (mean ± sd) (10 μM): 0.46 ± 0.05 OD
- inhibition at 0.1 µM: 18%
- inhibition at 10 µM: 68%

SMILES: COc1ccc2c(c1O)[C@@]13CCN(CC4CC4)C(C2)C1CCC(=O)C3 (stereo partly shown) [Compound I-6]
- OD 650 nm (mean ± sd) (100 nM): 1.29 ± 0.07 OD
- OD 650 nm (mean ± sd) (10 μM): 0.12 ± 0.02 OD
- inhibition at 0.1 µM: 9%
- inhibition at 10 µM: 91%

SMILES: C=CCN1CC[C@@]23CC(=O)CCC2C1Cc1ccc(OC)c(O)c13 (stereo partly shown) [Compound I-7]
- OD 650 nm (mean ± sd) (100 nM): 1.14 ± 0.03 OD
- OD 650 nm (mean ± sd) (10 μM): 0.16 ± 0.01 OD
- inhibition at 0.1 µM: 20%
- inhibition at 10 µM: 89%

SMILES: COc1cc(Br)c2c(c1O)[C@@]13CCN(CC4CCC4)C(C2)C1CCC(=O)C3 (stereo partly shown) [Compound I-8]
- OD 650 nm (mean ± sd) (100 nM): 1.13 ± 0.07 OD
- OD 650 nm (mean ± sd) (10 μM): 0.11 ± 0.01 OD
- inhibition at 0.1 µM: 20%
- inhibition at 10 µM: 92%

SMILES: COc1ccc2c(c1O)[C@@]13CCN(C)[C@@H](C2)[C@@]1(O)CC(OC)C(=O)C3 (stereo partly shown) [Compound I-9]
- OD 650 nm (mean ± sd) (100 nM): 1.50 ± 0.10 OD
- OD 650 nm (mean ± sd) (10 μM): 1.03 ± 0.01 OD
- inhibition at 0.1 µM: -6%
- inhibition at 10 µM: 28%

SMILES: COc1ccc2c(c1O)[C@@]13CCN(C)[C@@H](C2)[C@H]1CC(OC)C(O)C3 (stereo partly shown) [Compound I-10]
- OD 650 nm (mean ± sd) (100 nM): 1.32 ± 0.04 OD
- OD 650 nm (mean ± sd) (10 μM): 1.04 ± 0.08 OD
- inhibition at 0.1 µM: 7%
- inhibition at 10 µM: 27%

SMILES: CCOC(=O)N1CC[C@@]23CC(=O)CCC2C1Cc1c(Br)cc(OC)c(O)c13 (stereo partly shown) [Compound I-11]
- OD 650 nm (mean ± sd) (100 nM): 1.49 ± 0.04 OD
- OD 650 nm (mean ± sd) (10 μM): 1.98 ± 0.09 OD
- inhibition at 0.1 µM: -5%
- inhibition at 10 µM: -39%

SMILES: COc1cc(Br)c2c(c1OC(C)=O)[C@@]13CCN(CC4CC4)C(C2)C1CCC(=O)C3 (stereo partly shown) [Compound I-12]
- OD 650 nm (mean ± sd) (100 nM): 1.19 ± 0.07 OD
- OD 650 nm (mean ± sd) (10 μM): 0.13 ± 0.01 OD
- inhibition at 0.1 µM: 16%
- inhibition at 10 µM: 91%

SMILES: COc1cc(-c2ccoc2)c2c(c1O)[C@@]13CCN(CC4CC4)C(C2)C1CCC(=O)C3 (stereo partly shown) [Compound I-13]
- OD 650 nm (mean ± sd) (100 nM): 1.34 ± 0.12 OD
- OD 650 nm (mean ± sd) (10 μM): 0.13 ± 0.01 OD
- inhibition at 0.1 µM: 6%
- inhibition at 10 µM: 91%

SMILES: C=CCN1CC[C@@]23CC(=O)C(OC)C[C@@H]2[C@@H]1Cc1ccc(OC)c(O)c13 (stereo partly shown) [Compound I-16]
- OD 650 nm (mean ± sd) (100 nM): 1.50 ± 0.01 OD
- OD 650 nm (mean ± sd) (10 μM): 0.91 ± 0.04 OD
- inhibition at 0.1 µM: -5%
- inhibition at 10 µM: 36%

SMILES: COc1ccc2c(c1O)[C@@]13CCN(CC4CC4)[C@@H](C2)[C@@]1(O)CC(OC)C(=O)C3 (stereo partly shown) [Compound I-18]
- OD 650 nm (mean ± sd) (100 nM): 1.40 ± 0.14 OD
- OD 650 nm (mean ± sd) (10 μM): 1.01 ± 0.06 OD
- inhibition at 0.1 µM: 1%
- inhibition at 10 µM: 29%

SMILES: COc1ccc2c(c1O)[C@]13C=CCC[C@]1(O)[C@H](C2)N(C)CC3 [Compound I-22]
- OD 650 nm (mean ± sd) (100 nM): 0.93 ± 0.15 OD
- OD 650 nm (mean ± sd) (10 μM): 0.10 ± 0.01 OD
- inhibition at 0.1 µM: 34%
- inhibition at 10 µM: 93%

SMILES: COc1ccc2c(c1O)[C@@]13CCN(C)[C@@H](C2)[C@@]1(O)CCC(=O)C3 [Compound I-25]
- OD 650 nm (mean ± sd) (100 nM): 1.08 ± 0.05 OD
- OD 650 nm (mean ± sd) (10 μM): 0.52 ± 0.07 OD
- inhibition at 0.1 µM: 24%
- inhibition at 10 µM: 63%

SMILES: COc1ccc2c(c1OCc1ccccc1)[C@@]13CCN[C@@H](C2)[C@H]1CC(OC)C(=O)C3 (stereo partly shown) [Compound I-26]
- OD 650 nm (mean ± sd) (100 nM): 1.15 ± 0.03 OD
- OD 650 nm (mean ± sd) (10 μM): 0.19 ± 0.02 OD
- inhibition at 0.1 µM: 19%
- inhibition at 10 µM: 87%

SMILES: C=C(C)c1cc(OC)c(O)c2c1CC1C3CCC(=O)C[C@@]23CCN1CC1CC1 (stereo partly shown) [Compound I-27]
- OD 650 nm (mean ± sd) (100 nM): 1.13 ± 0.04 OD
- OD 650 nm (mean ± sd) (10 μM): 0.10 ± 0.00 OD
- inhibition at 0.1 µM: 20%
- inhibition at 10 µM: 93%

SMILES: COC1=C[C@@H]2[C@@H]3Cc4ccc(OC)c(O)c4[C@]2(CCN3C)CC1O (stereo partly shown) [Compound I-28]
- OD 650 nm (mean ± sd) (100 nM): 1.24 ± 0.02 OD
- OD 650 nm (mean ± sd) (10 μM): 0.12 ± 0.01 OD
- inhibition at 0.1 µM: 13%
- inhibition at 10 µM: 91%

SMILES: COc1ccc2c(c1O)[C@@]13CCN(CC4CCC4)[C@@H](C2)C1CCC(=O)C3 (stereo partly shown) [Compound I-29]
- OD 650 nm (mean ± sd) (100 nM): 1.06 ± 0.03 OD
- OD 650 nm (mean ± sd) (10 μM): 0.11 ± 0.00 OD
- inhibition at 0.1 µM: 25%
- inhibition at 10 µM: 92%
